The values below come from patent publication US9133183B2, “Imidazolidinones and analogs exhibiting anti-cancer and anti-proliferative activities” (Deciphera Pharmaceuticals, LLC, priority 2013, dated 2015).

For assay [1], the target named is unphosphorylated c-FMS kinase (uFMS, Seq. ID no. 1) (Homo sapiens (Human), UniProt P07333). Kind of assay: uFMS kinase assay (ADP production coupled to pyruvate kinase/lactate dehydrogenase). The format is biochemical. Particulars: enzymatic assay, ATP 500 μM; read-out: uFMS. The method in brief: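 Unphosphorylated FMS (10 nM) with polyE4Y 1 mg/mL and 500 μM ATP in 90 mM Tris pH 7.5, 10 mM MgCl2, 0.2% octyl-glucoside, 1% DMSO. ADP formation was coupled via pyruvate kinase/LDH to NADH oxidation, followed at A340 for 4 h at 30° C.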

A further assay has as its system M-NFS-60 cells. Kind of assay: M-NFS-60 cell proliferation assay (resazurin). It is filed as cell-based. As to conditions: 67 h incubation. Put shortly:
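Cells kept in medium containing 20 ng/mL mouse recombinant M-CSF. Fluorescence was read at ex 540/em 600 nm, and IC50 was fitted from percent inhibition across a range of inhibitor concentrations.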
A general note: The colour change of resazurin is a common sign of viable cells or microbes.

In assay [2] the target is unphosphorylated c-KIT kinase (uKIT, Seq. ID no. 2) (Homo sapiens (Human), UniProt P10721). Kind of assay: uKit kinase assay (coupled pyruvate kinase/lactate dehydrogenase). It is filed as biochemical. Particulars: enzymatic assay, ATP 2000 μM. The method in brief: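 The read-out was a continuous PK/LDH-coupled decrease in NADH absorbance at 340 nm, monitored at 30 °C over 4 h. IC50 came from % inhibition based on rates at 3–4 h. The GST-tagged unphosphorylated KIT (12 nM) was used with polyE4Y substrate, 2000 μM ATP and 10 mM Mg2+ at pH 7.5, with serially diluted compound.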

Assay [3] deals with unphosphorylated PDGFRβ kinase (uPDGFRβ, Seq. ID No. 3) (Homo sapiens (Human), UniProt P09619). Kind of assay: Unphosphorylated PDGFRβ kinase assay (coupled pyruvate kinase/lactate dehydrogenase). The format is biochemical. As to conditions: enzymatic assay, ATP 500 μM. Here is the method: Unphosphorylated PDGFRβ (uPDGFRβ) Kinase (Seq. ID No. 3) Assay
Activity of unphosphorylated PDGFRβ kinase (uPDGFRβ, Seq. ID No. 3) was determined by following the production of ADP from the kinase reaction with ATP and poly E4Y as substrates through coupling with the pyruvate kinase/lactate dehydrogenase system (e.g., Schindler et al. Science (2000) 289: 1938-1942). In this assay, the oxidation of NADH (thus the decrease at A340 nm) was continuously monitored spectrophometrically. The reaction mixture (100 μL) contained PDGFRβ (DeCode, 15.7 nM), polyE4Y (2.5 mg/mL), MgCl2 (10 mM), pyruvate kinase (4 units), lactate dehydrogenase (0.7 units), phosphoenol pyruvate (1 mM) and NADH (0.28 mM) and ATP (500 μM) in a 90 mM Tris buffer containing 0.2% octyl-glucoside and 1% DMSO, at pH 7.5. The inhibition reaction was started by mixing serial diluted test compound with the above reaction mixture. The absorption at 340 nm was monitored continuously for 4 h at 30° C. on a Polarstar Optima or Synergy 2 plate reader. The reaction rate was calculated using the 1.5 to 2.5 h time frame. Percent inhibition was obtained by comparison of reaction rate with that of a control (i.e., with no test compound). IC50 values were calculated from a series of percent inhibition values determined at a range of inhibitor concentrations using software routines as implemented in the GraphPad Prism software package.
uPDGFRβ Kinase Sequence (Residues 557-1106) Used for Screening (Seq ID No. 3)

A further assay has as its system osteoclast precursors. Kind of assay: Osteoclast tartrate-resistant acid phosphatase assay. Particulars: Osteoclast, 7-14 days, RANKL and M-CSF. It is filed as cell-based.

Sequence of unphosphorylated c-FMS kinase (uFMS, Seq. ID no. 1) (P07333 538-972): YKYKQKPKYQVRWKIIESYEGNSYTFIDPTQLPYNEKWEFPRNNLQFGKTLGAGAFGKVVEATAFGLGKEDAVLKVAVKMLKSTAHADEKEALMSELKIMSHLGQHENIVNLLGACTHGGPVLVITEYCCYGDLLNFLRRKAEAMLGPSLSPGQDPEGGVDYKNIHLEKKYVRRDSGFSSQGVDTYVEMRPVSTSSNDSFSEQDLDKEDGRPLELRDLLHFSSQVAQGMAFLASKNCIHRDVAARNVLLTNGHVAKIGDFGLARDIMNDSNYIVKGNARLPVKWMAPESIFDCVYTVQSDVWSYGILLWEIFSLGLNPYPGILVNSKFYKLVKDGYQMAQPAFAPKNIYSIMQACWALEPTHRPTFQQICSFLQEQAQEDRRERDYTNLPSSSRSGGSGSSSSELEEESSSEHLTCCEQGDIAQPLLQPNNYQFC
Sequence of unphosphorylated PDGFRβ kinase (uPDGFRβ, Seq. ID No. 3) (P09619 557-1106): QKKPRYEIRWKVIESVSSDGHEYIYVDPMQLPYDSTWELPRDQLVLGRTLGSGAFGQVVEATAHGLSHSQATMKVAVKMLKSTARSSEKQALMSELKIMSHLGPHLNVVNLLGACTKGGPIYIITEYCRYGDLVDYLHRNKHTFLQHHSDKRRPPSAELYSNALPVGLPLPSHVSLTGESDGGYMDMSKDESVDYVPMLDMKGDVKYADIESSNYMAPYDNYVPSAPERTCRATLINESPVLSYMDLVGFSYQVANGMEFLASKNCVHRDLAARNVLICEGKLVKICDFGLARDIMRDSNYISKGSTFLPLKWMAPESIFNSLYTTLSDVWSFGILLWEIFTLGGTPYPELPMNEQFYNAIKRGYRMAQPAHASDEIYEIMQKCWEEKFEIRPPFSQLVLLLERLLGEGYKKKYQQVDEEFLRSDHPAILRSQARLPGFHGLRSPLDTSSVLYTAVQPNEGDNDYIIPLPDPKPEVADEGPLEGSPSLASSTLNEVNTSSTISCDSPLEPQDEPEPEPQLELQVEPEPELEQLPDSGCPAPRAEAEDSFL
Sequence of unphosphorylated c-KIT kinase (uKIT, Seq. ID no. 2) (P10721 other isoform, or with tags, fused parts or gaps): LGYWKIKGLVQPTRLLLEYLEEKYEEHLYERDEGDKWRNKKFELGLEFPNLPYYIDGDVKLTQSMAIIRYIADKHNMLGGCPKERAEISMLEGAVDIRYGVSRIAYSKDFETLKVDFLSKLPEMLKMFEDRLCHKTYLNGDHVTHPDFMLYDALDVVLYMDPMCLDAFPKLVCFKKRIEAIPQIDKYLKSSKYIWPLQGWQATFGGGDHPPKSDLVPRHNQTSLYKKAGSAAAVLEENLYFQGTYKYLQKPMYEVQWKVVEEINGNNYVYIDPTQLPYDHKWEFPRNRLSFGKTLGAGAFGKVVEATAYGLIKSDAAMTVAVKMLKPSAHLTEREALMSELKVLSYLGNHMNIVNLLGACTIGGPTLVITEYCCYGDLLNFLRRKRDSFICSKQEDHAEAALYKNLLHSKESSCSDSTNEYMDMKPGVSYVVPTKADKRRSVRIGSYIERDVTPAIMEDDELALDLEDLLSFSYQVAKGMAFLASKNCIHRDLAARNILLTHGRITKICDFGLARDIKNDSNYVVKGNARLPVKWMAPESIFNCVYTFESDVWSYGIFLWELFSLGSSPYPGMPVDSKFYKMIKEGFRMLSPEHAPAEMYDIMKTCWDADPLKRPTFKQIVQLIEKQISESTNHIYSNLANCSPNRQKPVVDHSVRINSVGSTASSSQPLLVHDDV

Turning to `Cn1cc(-c2cc(Oc3ccc(NC(=O)N4CCN(C5CC5)C4=O)nc3)ccn2)cn1` [Example 46, 3-cyclopropyl-N-(5-((2-(1-methyl-1H-pyrazol-4-yl)pyridin-4-yl)oxy)pyridin-2-yl)-2-oxoimidazolidine-1-carboxamide], the IC50 in assay [1] was below 10 nM; in the assay with M-NFS-60 cells, 10 to 100 nM; in assay [2] it was 10 to 100 nM; in assay [3], 100 to 1000 nM; in the assay on osteoclast precursors, below 10 nM.
For `COCCN1CCN(C(=O)Nc2ccc(Oc3ccnc(-c4ccc(C5CCN(C)CC5)cc4)c3)c(C)n2)C1=O` [Example 80, 3-(2-methoxyethyl)-N-(6-methyl-5-((2-(4-(1-methylpiperidin-4-yl)phenyl)pyridin-4-yl)oxy)pyridin-2-yl)-2-oxoimidazolidine-1-carboxamide], the IC50 is below 10 nM in assay [1]; 10 to 100 nM in the assay with M-NFS-60 cells; 100 to 1000 nM in assay [2]; above 1000 nM in assay [3]; 10 to 100 nM in the assay on osteoclast precursors.
For `CCN1CCN(C(=O)Nc2ccc(Oc3ccnc(C(=O)NC)c3)cn2)C1=O` [Example 115, 4-((6-(3-ethyl-2-oxoimidazolidine-1-carboxamido)pyridin-3-yl)oxy)-N-methylpicolinamide], the IC50 was 100 to 1000 nM in assay [1]; above 1000 nM in the assay with M-NFS-60 cells; 100 to 1000 nM in assay [2]; above 1000 nM in assay [3]; 10 to 100 nM with osteoclast precursors.
For `Cc1ccc(-c2cc(Oc3ccc(NC(=O)N4CCN(CC(F)(F)F)C4=O)nc3C)ccn2)cn1` [Example 53, N-(6-methyl-5-((6′-methyl-[2,3′-bipyridin]-4-yl)oxy)pyridin-2-yl)-2-oxo-3-(2,2,2-trifluoroethyl)imidazolidine-1-carboxamide], the IC50 was 10 to 100 nM in assay [1]; 10 to 100 nM with M-NFS-60 cells; above 1000 nM in assay [2]; above 1000 nM in assay [3]; 100 to 1000 nM with osteoclast precursors.
`CCN1CCN(C(=O)Nc2ccc(Oc3ccnc(-c4ccc(N5CCN(C)CC5)cc4)c3)c(C)n2)C1=O` [Example 68, 3-ethyl-N-(6-methyl-5-((2-(4-(4-methylpiperazin-1-yl)phenyl)pyridin-4-yl)oxy)pyridin-2-yl)-2-oxoimidazolidine-1-carboxamide]: the IC50 in assay [1] is below 10 nM; with M-NFS-60 cells it was 10 to 100 nM; in assay [2], 10 to 100 nM; in assay [3], above 1000 nM; with osteoclast precursors, below 10 nM.
As to `Cc1cn(-c2cc(Oc3cnc(NC(=O)N4CCN(C)C4=O)cc3C)ccn2)cn1` [Example 89, 3-methyl-N-(4-methyl-5-((2-(4-methyl-1H-imidazol-1-yl)pyridin-4-yl)oxy)pyridin-2-yl)-2-oxoimidazolidine-1-carboxamide], the IC50 in assay [1] was 100 to 1000 nM; with M-NFS-60 cells it was above 1000 nM; in assay [2] it was 100 to 1000 nM; in assay [3], above 1000 nM; in the assay with osteoclast precursors it was 100 to 1000 nM.
Turning to `Cn1cc(-c2cc(Oc3ccc(NC(=O)N4CCN(C5COC5)C4=O)nc3)ccn2)cn1` [Example 50, N-(5-((2-(1-methyl-1H-pyrazol-4-yl)pyridin-4-yl)oxy)pyridin-2-yl)-3-(oxetan-3-yl)-2-oxoimidazolidine-1-carboxamide], the IC50 in assay [1] was 10 to 100 nM; in the assay with M-NFS-60 cells it was 10 to 100 nM; in assay [2], 10 to 100 nM; in assay [3], above 1000 nM; in the assay with osteoclast precursors, 10 to 100 nM.
Take `Cc1ncc(-c2cc(Oc3ccc(NC(=O)N4CCN(C5CCOCC5)C4=O)nc3)ccn2)s1` [Example 60, N-(5-((2-(2-methylthiazol-5-yl)pyridin-4-yl)oxy)pyridin-2-yl)-2-oxo-3-(tetrahydro-2H-pyran-4-yl)imidazolidine-1-carboxamide]: the IC50 in assay [1] was 10 to 100 nM; in the assay on M-NFS-60 cells, 10 to 100 nM; in assay [2] it was 10 to 100 nM; in assay [3], 100 to 1000 nM; with osteoclast precursors, 10 to 100 nM.
In the case of `COC[C@@H](C)N1CCN(C(=O)Nc2ccc(Oc3ccnc(-c4cnn(C)c4)c3)cn2)C1=O` [Example 59, (R)-3-(1-methoxypropan-2-yl)-N-(5-((2-(1-methyl-1H-pyrazol-4-yl)pyridin-4-yl)oxy)pyridin-2-yl)-2-oxoimidazolidine-1-carboxamide], the IC50 is below 10 nM in assay [1]; below 10 nM in the assay with M-NFS-60 cells; 10 to 100 nM in assay [2]; 100 to 1000 nM in assay [3]; below 10 nM in the assay on osteoclast precursors.
`Cc1cc(-c2cc(Oc3ccc(NC(=O)N4CCN(C5CCOCC5)C4=O)nc3)ccn2)ccn1` [Example 51, N-(5-((2′-methyl-[2,4′-bipyridin]-4-yl)oxy)pyridin-2-yl)-2-oxo-3-(tetrahydro-2H-pyran-4-yl)imidazolidine-1-carboxamide]: the IC50 in assay [1] was 10 to 100 nM; in the assay with M-NFS-60 cells it was 10 to 100 nM; in assay [2], 10 to 100 nM; in assay [3], above 1000 nM; in the assay on osteoclast precursors, 100 to 1000 nM.
In the case of `COCCN1CCN(C(=O)Nc2ccc(Oc3ccnc(NC(=O)N(C)C)c3)cn2)C1=O` [Example 116, N-(5-((2-(3,3-dimethylureido)pyridin-4-yl)oxy)pyridin-2-yl)-3-(2-methoxyethyl)-2-oxoimidazolidine-1-carboxamide], the IC50 was 10 to 100 nM in assay [1]; 100 to 1000 nM with M-NFS-60 cells; 10 to 100 nM in assay [2]; above 1000 nM in assay [3]; 10 to 100 nM with osteoclast precursors.
Turning to `CC(C)N1CCN(C(=O)Nc2ncc(Oc3ccnc(-c4cnn(C)c4)c3)cn2)C1=O` [Example 2, 3-isopropyl-N-(5-((2-(1-methyl-1H-pyrazol-4-yl)pyridin-4-yl)oxy)pyrimidin-2-yl)-2-oxoimidazolidine-1-carboxamide], the IC50 was 10 to 100 nM in assay [1]; 10 to 100 nM in the assay on M-NFS-60 cells; 10 to 100 nM in assay [2]; above 1000 nM in assay [3]; below 10 nM in the assay on osteoclast precursors.
Take `COC(C)(C)CCN1CCN(C(=O)Nc2ccc(Oc3ccnc(-c4cnn(C)c4)c3)cn2)C1=O` [Example 24, 3-(3-methoxy-3-methylbutyl)-N-(5-((2-(1-methyl-1H-pyrazol-4-yl)pyridin-4-yl)oxy)pyridin-2-yl)-2-oxoimidazolidine-1-carboxamide]: the IC50 in assay [1] lay in the range of 10 to 100 nM; in the assay on M-NFS-60 cells, 10 to 100 nM; in assay [2], 10 to 100 nM; in assay [3] it was 100 to 1000 nM; in the assay on osteoclast precursors it was 10 to 100 nM.
For the molecule `Cn1cc(-c2cc(Oc3ccc(NC(=O)N4CCN(C5CCCC5)C4=O)nc3)ccn2)cn1` [Example 30, 3-cyclopentyl-N-(5-((2-(1-methyl-1H-pyrazol-4-yl)pyridin-4-yl)oxy)pyridin-2-yl)-2-oxoimidazolidine-1-carboxamide], the IC50 in assay [1] is below 10 nM; in the assay on M-NFS-60 cells it was below 10 nM; in assay [2], below 10 nM; in assay [3], 100 to 1000 nM; in the assay with osteoclast precursors, below 10 nM.
On to `Cc1cc(NC(=O)N2CCN(C3CC3)C2=O)nc(C)c1Oc1ccnc(-c2cnn(C)c2)c1` [Example 71, 3-cyclopropyl-N-(4,6-dimethyl-5-((2-(1-methyl-1H-pyrazol-4-yl)pyridin-4-yl)oxy)pyridin-2-yl)-2-oxoimidazolidine-1-carboxamide], for which the IC50 in assay [1] is below 10 nM; with M-NFS-60 cells, 10 to 100 nM; in assay [2], 10 to 100 nM; in assay [3], 100 to 1000 nM; with osteoclast precursors, 10 to 100 nM.
On to `CCN1CCN(C(=O)Nc2ccc(Oc3ccnc(NC(C)=O)c3)c(C)n2)C1=O` [Example 122, N-(5-((2-acetamidopyridin-4-yl)oxy)-6-methylpyridin-2-yl)-3-ethyl-2-oxoimidazolidine-1-carboxamide], for which the IC50 in assay [1] was 10 to 100 nM; in the assay on M-NFS-60 cells, 100 to 1000 nM; in assay [2], above 1000 nM; in assay [3] it was above 1000 nM; with osteoclast precursors it was 100 to 1000 nM.
Consider `Cn1cc(-c2cc(Oc3ccc(NC(=O)N4CCN(CC#N)C4=O)nc3)ccn2)cn1` [Example 55, 3-(cyanomethyl)-N-(5-((2-(1-methyl-1H-pyrazol-4-yl)pyridin-4-yl)oxy)pyridin-2-yl)-2-oxoimidazolidine-1-carboxamide], for which the IC50 in assay [1] was 100 to 1000 nM; in the assay with M-NFS-60 cells, 100 to 1000 nM; in assay [2] it was above 1000 nM; in assay [3], above 1000 nM; in the assay with osteoclast precursors it was 100 to 1000 nM.
